Data from US20230286960A1, “ALLOSTERIC CHROMENONE INHIBITORS OF PHOSPHOINOSITIDE 3-KINASE (PI3K) FOR THE TREATMENT OF DISEASE” (Petra Pharma Corporation, priority 2020, published 2023).

target: human full length PIK3CA wild-type (p110α/p85α) (Homo sapiens (Human), UniProt P42336); assay: PI3K-alpha kinase (PIK3CA) activity, wild-type, Transcreener ADP2 FI assay; details: PI3K-α (PIK3CA) biochemical
Experimental: (§1) PI3K-Alpha Kinase (PIK3CA) Activity, Wild-Type and H1047R Mutant and Determining IC50 Values for Inhibitors
(§2) Recombinant, catalytically active human full length PIK3KA Wild-type and H1047R mutant were purchased as 1:1 complex of N-terminal 6× his tagged p110 ? (catalytic) and untagged p85 ? (regulatory subunit) from EMD Millipore Sigma (cat. no. 14-602M and 14-792M, respectively). The enzyme stocks were diluted to 5× stocks in buffer (20 mM HEPES pH 7.4, 100 mM NaCl, 0.5 mM EGTA, 0.01% triton-x-100) just before use. PIP2diC8 (Avanti Polar Lipids Inc., cat. no. 850185) or phosphoinositol-4,5-bisphosphate with phosphoserine (PIP2:PS) membrane (Thermo Fisher Scientific, cat. no. PV5100) was used as lipid substrates. PIP2diC8 lyophilized powder and PIP2:PS (1:19) membrane stock (1 mM in PIP2) were separately dissolved in milliQ water to a concentration of 250 uM and stored in −20° C. 10 mM stocks of compounds were serially diluted (3×) in neat DMSO and stored in a dessicator at room temperature. 5× compound stocks in 25% DMSO were prepared fresh from neat DMSO stocks.
(§3) Wild-type (WT) and H1047R mutant protein, along with buffer components (except ATP), were incubated with or without compound at 27° C. for 1 h. After incubation, the reaction was initiated by the addition of 5 uL of 125 uM ATP. A typical assay mixture (25 uL) comprised 40 mM HEPES buffer, pH 7.4, 25 mM MgCl2, 0.01% v/v triton-X-100, 5% v/v DMSO, 20 mM NaCl, 1-5 nM wt or H1047R, 25 uM ATP, and 50 uM PIP2diC8 or PIP2 in membrane. The reaction was allowed to proceed until about […] (2.5 uM ADP) after which time, 10 uL of reaction mixture was quenched with 25 uL of transcreener reagent (Transcreener ADP2 FI assay kit, BellBrook labs, Cat. No. 3013). The contents were incubated at rt for 1 h and fluorescence was measured using a plate reader (Paradigm, Molecular Devices). The same assay was also run at pH 6.0 or 6.4 using MOPS buffer (Fisher BioReagents, CAS 1132-61-2). A calibration curve was generated under identical buffer conditions with varying ADP amounts. Using that, the observed fluorescence was converted to uM ADP. A plot between [ADP] and log[I] yielded the dose-response curves that enabled the calculation of IC50s.

Sequence of human full length PIK3CA wild-type (p110α/p85α) (P42336 whole entry): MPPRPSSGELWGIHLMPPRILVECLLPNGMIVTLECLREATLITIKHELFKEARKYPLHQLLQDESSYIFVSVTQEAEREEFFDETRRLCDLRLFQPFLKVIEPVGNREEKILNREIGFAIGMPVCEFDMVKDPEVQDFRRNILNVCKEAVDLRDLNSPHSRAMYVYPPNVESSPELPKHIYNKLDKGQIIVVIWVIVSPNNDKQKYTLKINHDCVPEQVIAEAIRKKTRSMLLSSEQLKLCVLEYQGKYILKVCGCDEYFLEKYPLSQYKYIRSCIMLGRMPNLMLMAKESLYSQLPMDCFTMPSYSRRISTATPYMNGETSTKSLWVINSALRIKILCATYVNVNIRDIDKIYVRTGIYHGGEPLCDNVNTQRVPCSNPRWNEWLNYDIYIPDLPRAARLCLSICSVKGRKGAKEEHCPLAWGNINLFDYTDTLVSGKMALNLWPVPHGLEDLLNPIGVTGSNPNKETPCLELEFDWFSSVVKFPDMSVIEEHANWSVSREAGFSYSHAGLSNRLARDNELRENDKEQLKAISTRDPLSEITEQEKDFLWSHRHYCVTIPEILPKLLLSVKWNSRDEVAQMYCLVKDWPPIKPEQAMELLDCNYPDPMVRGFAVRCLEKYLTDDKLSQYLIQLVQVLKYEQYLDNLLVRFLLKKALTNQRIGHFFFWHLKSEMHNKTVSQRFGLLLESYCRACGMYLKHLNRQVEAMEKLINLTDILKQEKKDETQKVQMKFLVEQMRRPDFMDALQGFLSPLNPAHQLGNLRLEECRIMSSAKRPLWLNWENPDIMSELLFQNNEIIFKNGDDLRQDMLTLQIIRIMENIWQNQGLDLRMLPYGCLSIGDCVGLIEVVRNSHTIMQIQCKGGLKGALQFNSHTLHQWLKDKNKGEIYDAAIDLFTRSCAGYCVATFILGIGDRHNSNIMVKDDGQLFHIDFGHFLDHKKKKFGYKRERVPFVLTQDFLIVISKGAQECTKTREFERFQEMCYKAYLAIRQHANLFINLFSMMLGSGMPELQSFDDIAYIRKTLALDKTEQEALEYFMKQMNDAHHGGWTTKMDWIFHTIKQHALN
Sequence of human full length PIK3CA wild-type (p110α/p85α) (P27986 whole entry partner): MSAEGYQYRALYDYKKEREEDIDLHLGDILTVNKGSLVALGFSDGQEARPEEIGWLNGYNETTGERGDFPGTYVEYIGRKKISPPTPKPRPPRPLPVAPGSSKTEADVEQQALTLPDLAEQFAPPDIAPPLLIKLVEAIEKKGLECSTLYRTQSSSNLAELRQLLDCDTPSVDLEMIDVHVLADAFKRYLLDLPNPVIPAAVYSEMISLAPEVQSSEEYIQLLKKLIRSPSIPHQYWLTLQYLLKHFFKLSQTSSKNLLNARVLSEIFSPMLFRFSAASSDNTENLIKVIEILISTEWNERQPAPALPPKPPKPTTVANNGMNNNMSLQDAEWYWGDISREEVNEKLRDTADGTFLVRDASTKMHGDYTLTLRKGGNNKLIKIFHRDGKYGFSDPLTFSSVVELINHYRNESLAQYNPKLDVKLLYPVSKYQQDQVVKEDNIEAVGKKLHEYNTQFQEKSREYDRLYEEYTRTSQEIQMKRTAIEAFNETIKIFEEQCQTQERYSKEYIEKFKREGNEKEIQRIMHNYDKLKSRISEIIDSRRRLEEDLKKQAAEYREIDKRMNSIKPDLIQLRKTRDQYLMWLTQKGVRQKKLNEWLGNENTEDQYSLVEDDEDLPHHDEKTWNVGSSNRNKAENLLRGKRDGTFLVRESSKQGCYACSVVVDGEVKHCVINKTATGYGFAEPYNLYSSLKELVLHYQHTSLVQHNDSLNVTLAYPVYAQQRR

IC50	SMILES
> 10000 nM	Cc1cc(C(C)Nc2ccccc2C(=O)O)c2oc(N3CCS(=O)(=O)CC3)cc(=O)c2c1 (centres unmarked) [Example 117, 2-[1-[2-(1,1-Dioxo-1,4-thiazinan-4-yl)-6-methyl-4-oxo-chromen-8-yl]ethylamino]benzoic acid]
> 10000 nM	Cc1cc(C(C)Nc2ccccc2C(=O)O)c2oc(N3CC4CCC(C3)O4)cc(=O)c2c1 (centres unmarked) [Example 82, 2-[1-[6-Methyl-2-(8-oxa-3-azabicyclo[3.2.1]octan-3-yl)-4-oxo-chromen-8-yl]ethylamino]benzoic acid]
> 10000 nM	Cc1cc(C(C)Nc2cccc(F)c2C(=O)O)c2oc(N3Cc4ccc(F)cc4C3)cc(=O)c2c1 (centres unmarked) [Example 238, 2-Fluoro-6-[1-[2-(5-fluoroisoindolin-2-yl)-6-methyl-4-oxo-chromen-8-yl]ethylamino]benzoic acid]
> 10000 nM	COC1CCN(c2cc(=O)c3cc(C)cc(C(C)Nc4ccccc4C(=O)O)c3o2)CC1 (centres unmarked) [Example 373, 2-[1-[2-(4-Methoxy-1-piperidyl)-6-methyl-4-oxo-chromen-8-yl]ethylamino]benzoic acid]
> 10000 nM	Cc1cc(C(C)Nc2ccccc2C(=O)O)c2oc(N3CCC4(CC3)CN(C)C(=O)O4)cc(=O)c2c1 (centres unmarked) [Example 380, 2-[1-[6-Methyl-2-(3-methyl-2-oxo-1-oxa-3,8-diazaspiro[4.5]decan-8-yl)-4-oxo-chromen-8-yl]ethylamino]benzoic acid]
> 10000 nM	COc1ccc(NC(C)c2cc(C)cc3c(=O)cc(N4Cc5ccccc5C4)oc23)c(C(=O)O)n1 (centres unmarked) [Example 237, 3-[1-(2-Isoindolin-2-yl-6-methyl-4-oxo-chromen-8-yl)ethylamino]-6-methoxy-pyridine-2-carboxylic acid]

target: human full length PIK3CA H1047R mutant (p110α/p85α) (Homo sapiens (Human), UniProt P42336, H1047R); assay: PI3K-alpha kinase (PIK3CA) activity, H1047R mutant, Transcreener ADP2 FI assay; details: PI3K-α (PIK3CA) biochemical
Sequence (P42336 whole entry H1047R): as the sequence (P42336 whole entry) above, with H1047R counted along it
Sequence (P27986 whole entry partner): as the sequence (P27986 whole entry partner) above
Experimental: as §1, §2, §3

IC50	SMILES
< 500 nM	CONC(=O)c1ccccc1NC(C)c1cc(C)cc2c(=O)cc(N3CCC(C)(C)CC3)oc12 (centres unmarked) [Example 19, 2-[1-[2-(4,4-Dimethyl-1-piperidyl)-6-methyl-4-oxo-chromen-8-yl]ethylamino]-N-methoxy-benzamide]
< 500 nM	Cc1cc(C(C)Nc2ccc(Cl)nc2C(=O)O)c2oc(N3Cc4ccc5c(c4C3)OCO5)cc(=O)c2c1 (centres unmarked) [Example 299, 6-Chloro-3-[1-[2-(6,8-dihydro-[1,3]dioxolo[4,5-e]isoindol-7-yl)-6-methyl-4-oxo-chromen-8-yl]ethylamino]pyridine-2-carboxylic acid]
< 500 nM	Cc1cc(C(C)Nc2ccccc2C(=O)O)c2oc(N3CC4(CCCCC4)C3)cc(=O)c2c1 (centres unmarked) [Example 88, 2-[1-[2-(2-Azaspiro[3.5]nonan-2-yl)-6-methyl-4-oxo-chromen-8-yl]ethylamino]benzoic acid]
< 500 nM	Cc1cc(C(C)Nc2ccccc2C(=O)O)c2oc(N3CCCC(C)(C)C3)cc(=O)c2c1 (centres unmarked) [Example 65, 2-[1-[2-(3,3-Dimethyl-1-piperidyl)-6-methyl-4-oxo-chromen-8-yl]ethylamino]benzoic acid]
< 500 nM	Cc1cc(C(C)Nc2ccccc2C(=O)O)c2oc(N3Cc4ccc(F)cc4C3)cc(=O)c2c1 (centres unmarked) [Example 105, 2-[1-[2-(5-Fluoroisoindolin-2-yl)-6-methyl-4-oxo-chromen-8-yl]ethylamino]benzoic acid]
< 500 nM	Cc1cc([C@@H](C)Nc2ccccc2C(=O)O)c2oc(N3CCCCC3)cc(=O)c2c1 [Example 376, 2-[[(1R)-1-[6-Methyl-4-oxo-2-(1-piperidyl)chromen-8-yl]ethyl]amino]benzoic acid]
< 500 nM	CC(Nc1ccccc1C(=O)O)c1cc(F)cc2c(=O)cc(N3CCC(F)(F)CC3)oc12 (centres unmarked) [Example 399]
< 500 nM	Cc1cc(C(C)Nc2ccccc2C(=O)O)c2oc(N3CC(C(C)(F)F)C3)cc(=O)c2c1 (stereo not drawn) [Example 189, 2-[1-[2-[3-(1,1-Difluoroethyl)azetidin-l-yl]-6-methyl-4-oxo-chromen-8-yl]ethylamino]benzoic acid 2,2,2-trifluoroacetic acid]
< 500 nM	Cc1cc([C@@H](C)Nc2ccccc2C(=O)O)c2oc(N3CCC(C#N)(c4ccccc4)CC3)c(C)c(=O)c2c1 [Example 288, 2-[[(1R)-1-[2-(4-Cyano-4-phenyl-1-piperidyl)-3,6-dimethyl-4-oxo-chromen-8-yl]ethyl]amino]benzoic acid]
< 500 nM	CC(Nc1ccccc1C(=O)O)c1cc(C(F)(F)F)cc2c(=O)cc(N3CCC(F)(F)CC3)oc12 (centres unmarked) [Example 396, 2-[1-[2-(4,4-Difluoro-1-piperidyl)-4-oxo-6-(trifluoromethyl)chromen-8-yl]ethylamino]benzoic acid 2,2,2-trifluoroacetic acid]
< 500 nM	Cc1cc(C(C)Nc2sc(Cl)nc2C(=O)O)c2oc(N3Cc4ccccc4C3)cc(=O)c2c1 (centres unmarked) [Example 245, 2-Chloro-5-[1-(2-isoindolin-2-yl-6-methyl-4-oxo-chromen-8-yl)ethylamino]thiazole-4-carboxylic acid 2,2,2-trifluoroacetic acid]
< 500 nM	Cc1cc(C(C)Nc2ccccc2-c2nnn[nH]2)c2oc(N3CCC(C)(C)CC3)cc(=O)c2c1 (centres unmarked) [Example 20, 2-(4,4-Dimethyl-1-piperidyl)-6-methyl-8-[1-[2-(1H-tetrazol-5-yl)anilino]ethyl]chromen-4-one]
< 500 nM	Cc1cc(C(C)Nc2ccccc2C(=O)O)c2oc(N3CCc4ccccc4C3)cc(=O)c2c1 (centres unmarked) [Example 233, 2-[1-[2-(3,4-Dihydro-1H-isoquinolin-2-yl)-6-methyl-4-oxo-chromen-8-yl]ethylamino]benzoic acid]
< 500 nM	Cc1cc(C(C)Nc2ccc(Cl)nc2C(=O)O)c2oc(N3Cc4ccc(F)cc4C3)cc(=O)c2c1 (centres unmarked) [Example 297, 6-Chloro-3-[1-[2-(5-fluoroisoindolin-2-yl)-6-methyl-4-oxo-chromen-8-yl]ethylamino]pyridine-2-carboxylic acid]
< 500 nM	Cc1cc([C@@H](C)Nc2ccccc2C(=O)O)c2oc(N3CC4(CCC4(F)F)C3)c(C)c(=O)c2c1 [Example 289, 2-[[(1R)-1-[2-(7,7-Difluoro-2-azaspiro[3.3]heptan-2-yl)-3,6-dimethyl-4-oxo-chromen-8-yl]ethyl]amino]benzoic acid]
< 500 nM	Cc1cc(C(C)Nc2ccc(Cl)nc2C(=O)O)c2oc(N3CCC4(CC3)CC4)c(C)c(=O)c2c1 (centres unmarked) [Example 302, 3-[1-[2-(6-Azaspiro[2.5]octan-6-yl)-3,6-dimethyl-4-oxo-chromen-8-yl]ethylamino]-6-chloro-pyridine-2-carboxylic acid]
< 500 nM	CC(Nc1ccccc1C(=O)O)c1cc(F)cc2c(=O)cc(N3CCC4(CC3)CC4)oc12 (centres unmarked) [Example 398, 2-[1-[2-(6-Azaspiro[2.5]octan-6-yl)-6-fluoro-4-oxo-chromen-8-yl]ethylamino]benzoic acid 2,2,2-trifluoroacetic acid]
< 500 nM	CCc1c(N2CCC(C)(C)CC2)oc2c(C(C)Nc3ccccc3C(=O)O)cc(C)cc2c1=O (centres unmarked) [Example 55, 2-[1-[2-(4,4-dimethyl-1-piperidyl)-3-ethyl-6-methyl-4-oxo-chromen-8-yl]ethylamino]benzoic acid]
< 500 nM	Cc1cc(C(C)Nc2ccccc2C(=O)O)c2oc(N3CCn4cccc4C3)cc(=O)c2c1 (centres unmarked) [Example 171, 2-[1-[2-(3,4-Dihydro-1H-pyrrolo[1,2-a]pyrazin-2-yl)-6-methyl-4-oxo-chromen-8-yl]ethylamino]benzoic acid]

SMILES	IC50
Cc1cc(C(C)Nc2ccccc2C(=O)O)c2oc(N3CC4CC(C4)C3)cc(=O)c2c1 (centres unmarked) [Example 177, 2-[1-[2-(3-Azabicyclo[3.1.1]heptan-3-yl)-6-methyl-4-oxo-chromen-8-yl]ethylamino]benzoic acid 2,2,2-trifluoroacetic acid]	< 500 nM
